According to PubChem BioAssay AID330 (DTP/NCI, 2004):
Values joined by “and” are separate entries in the source; they are usually repeats but may differ in a detail not shown here. Identical values can stand only once. Inconclusive results and toxic doses are left out.

System: P388 leukemia ip, CD2F1 mice, survival T/C
Assay: NCI In Vivo Anticancer Drug Screen. Data for tumor model P388 Leukemia (intraperitoneal) in CD2F1 (CDF1) mice
Details: endpoint: median survival time, higher = longer survival
Procedure, shortened: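 Mice carrying the transplanted tumor received test compound or vehicle. Survival was recorded in each group, and the value is the treated-group measurement divided by that of the vehicle-treated control group.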

[1] = dose: 100.0 mg/kg/injection, schedule: Q04DX002 (ip), vehicle: saline with Tween-80
[2] = dose: 200.0 mg/kg/injection, schedule: Q04DX002 (ip), vehicle: saline with Tween-80
[3] = dose: 25.0 mg/kg/injection, schedule: Q01DX009 (ip), vehicle: saline
[4] = dose: 50.0 mg/kg/injection, schedule: Q01DX009 (ip), vehicle: saline
[5] = dose: 100.0 mg/kg/injection, schedule: Q01DX009 (ip), vehicle: saline
[6] = dose: 200.0 mg/kg/injection, schedule: Q01DX009 (ip), vehicle: saline
[7] = dose: 12.5 mg/kg/injection, schedule: Q01DX009 (ip), vehicle: saline
[8] = dose: 50.0 mg/kg/injection, schedule: Q01DX009 (ip), vehicle: saline with Tween-80
[9] = dose: 100.0 mg/kg/injection, schedule: Q01DX009 (ip), vehicle: saline with Tween-80
[10] = dose: 200.0 mg/kg/injection, schedule: Q01DX009 (ip), vehicle: saline with Tween-80
[11] = dose: 25.0 mg/kg/injection, schedule: Q01DX009 (ip), vehicle: Klucel (hydroxypropylcellulose) (HPC)
[12] = dose: 50.0 mg/kg/injection, schedule: Q01DX009 (ip), vehicle: Klucel (hydroxypropylcellulose) (HPC)
[13] = dose: 100.0 mg/kg/injection, schedule: Q01DX009 (ip), vehicle: Klucel (hydroxypropylcellulose) (HPC)
[14] = dose: 200.0 mg/kg/injection, schedule: Q01DX009 (ip), vehicle: Klucel (hydroxypropylcellulose) (HPC)
[15] = dose: 100.0 mg/kg/injection, schedule: Q01DX005 (ip), vehicle: saline with Tween-80
[16] = dose: 60.0 mg/kg/injection, schedule: Q01DX005 (ip), vehicle: Klucel (hydroxypropylcellulose) (HPC)
[17] = dose: 120.0 mg/kg/injection, schedule: Q01DX005 (ip), vehicle: Klucel (hydroxypropylcellulose) (HPC)
[18] = dose: 240.0 mg/kg/injection, schedule: Q01DX005 (ip), vehicle: Klucel (hydroxypropylcellulose) (HPC)
[19] = dose: 60.0 mg/kg/injection, schedule: Q01DX005 (ip), vehicle: saline with Tween-80
[20] = dose: 120.0 mg/kg/injection, schedule: Q01DX005 (ip), vehicle: saline with Tween-80
[21] = dose: 240.0 mg/kg/injection, schedule: Q01DX005 (ip), vehicle: saline with Tween-80
[22] = dose: 50.0 mg/kg/injection, schedule: Q01DX001 (ip), vehicle: Klucel (hydroxypropylcellulose) (HPC)

`COc1cc(OC2OC(CO)C(O)C(O)C2O)ccc1/C=C\C(=O)c1ccc(O)cc1` (stereo unspecified) was tested, and the T/C [1] was 96 % of control, the T/C [2] was 90 % of control and the T/C (dose: 400.0 mg/kg/injection, schedule: Q04DX002 (ip), vehicle: saline with Tween-80) was 91 % of control.
For `O=Cc1ccc2c(c1)OCCOCCOCCOCCO2`, the T/C [3] was 100 % of control and 97 % of control, the T/C [4] was 99 % of control and 111 % of control and the T/C [5] was 105 % of control and 94 % of control. The T/C [6] was 102 % of control and 92 % of control.
With `Cc1cc(=O)oc2cc(OC(=O)Nc3ccc(Cl)c(Cl)c3)ccc12` the T/C (dose: 3.12 mg/kg/injection, schedule: Q01DX009 (ip), vehicle: saline) was 101 % of control, the T/C (dose: 6.25 mg/kg/injection, schedule: Q01DX009 (ip), vehicle: saline) was 100 % of control and the T/C [7] was 101 % of control and 90 % of control.
`CCOC(=O)C(=Cc1ccccc1Cl)C(=O)OCC` was tested, and the T/C (dose: 25.0 mg/kg/injection, schedule: Q01DX009 (ip), vehicle: saline with Tween-80) was 100 % of control and 111 % of control, the T/C [8] was 110 % of control and the T/C [9] was 102 % of control and 120 % of control. The T/C [10] was 116 % of control.
With `CC(N)C(O)C(C)C(=O)O` (stereo unspecified) the T/C (dose: 12.5 mg/kg/injection, schedule: Q01DX009 (ip), vehicle: water) was 111 % of control, the T/C (dose: 25.0 mg/kg/injection, schedule: Q01DX009 (ip), vehicle: water) was 107 % of control and the T/C (dose: 50.0 mg/kg/injection, schedule: Q01DX009 (ip), vehicle: water) was 107 % of control. The T/C (dose: 100.0 mg/kg/injection, schedule: Q01DX009 (ip), vehicle: water) was 98 % of control and the T/C (dose: 200.0 mg/kg/injection, schedule: Q01DX009 (ip), vehicle: water) was 102 % of control.
In the case of `CCOC(=O)Nc1c(C)cc(C)cc1C`, the T/C [11] is reported as 99 % of control, the T/C [12] is reported as 100 % of control and the T/C [13] is reported as 94 % of control. The T/C [14] was 100 % of control.
For `COC(=O)CN1C(=O)c2cccc3cc(N)cc(c23)C1=O`, the T/C [15] was 87 % of control.
For `CCOC(=O)c1ccc(NC(=O)Oc2ccc(NC(C)=O)cc2)cc1`, the T/C [16] was 98 % of control, the T/C [17] was 92 % of control and the T/C [18] was 92 % of control.
`O=C1CCS(=O)(=O)C(=O)N1c1ccccc1` was tested, and the T/C [12] was 100 % of control, the T/C [13] was 97 % of control and the T/C [14] was 87 % of control.
For `O=C1c2ccccc2C(=O)C1c1cc(Cl)c(O)c(Cl)c1`, the T/C (dose: 50.0 mg/kg/injection, schedule: Q04DX002 (ip), vehicle: saline) was 100 % of control, the T/C (dose: 50.0 mg/kg/injection, schedule: Q04DX002 (ip), vehicle: suspension in saline) was 99 % of control and the T/C (dose: 100.0 mg/kg/injection, schedule: Q04DX002 (ip), vehicle: saline) was 117 % of control and 94 % of control. The T/C (dose: 100.0 mg/kg/injection, schedule: Q04DX002 (ip), vehicle: suspension in saline) was 98 % of control, the T/C (dose: 200.0 mg/kg/injection, schedule: Q04DX002 (ip), vehicle: saline) was 101 % of control and 117 % of control and the T/C (dose: 200.0 mg/kg/injection, schedule: Q04DX002 (ip), vehicle: suspension in saline) was 100 % of control. For the same compound, the T/C (dose: 400.0 mg/kg/injection, schedule: Q04DX002 (ip), vehicle: saline) was 96 % of control and the T/C (dose: 400.0 mg/kg/injection, schedule: Q04DX002 (ip), vehicle: suspension in saline) was 100 % of control.
`Clc1nc2nc3n(c2nc1Cl)CCC3(Br)Br` was tested, and the T/C [19] was 97 % of control, the T/C [20] was 109 % of control and the T/C [21] was 103 % of control.
With `C/C(=N\NC(N)=S)c1ccc2c(c1)Cc1cc(/C(C)=N/NC(N)=S)ccc1-2` the T/C (dose: 25.0 mg/kg/injection, schedule: Q04DX002 (ip), vehicle: saline with Tween-80) was 99 % of control, the T/C (dose: 50.0 mg/kg/injection, schedule: Q04DX002 (ip), vehicle: saline with Tween-80) was 92 % of control and the T/C [1] was 93 % of control. For the same compound, the T/C [2] was 95 % of control.
`CCc1nc(N)nc(N)c1-c1ccc([N+](=O)[O-])c(Cl)c1` was tested, and the T/C [15] was 152 % of control and the T/C (dose: 200.0 mg/kg/injection, schedule: Q01DX005 (ip), vehicle: saline with Tween-80) was 93 % of control.
In the case of `CCCCCCCC/C=C\CCCCCCCC(=O)OCCN(CCOC(=O)CCCCCCC/C=C\CCCCCCCC)C(=O)c1ccccc1`, the T/C [8] is reported as 116 % of control, the T/C [9] is reported as 97 % of control and the T/C [10] is reported as 111 % of control.
For `CCc1ccccc1N1CCN(C(=O)c2cc(OC)c(OC)c(OC)c2)CC1`, the T/C (dose: 12.5 mg/kg/injection, schedule: Q01DX009 (ip), vehicle: Klucel (hydroxypropylcellulose) (HPC)) was 95 % of control, the T/C [7] was 100 % of control and 120 % of control and the T/C [11] was 104 % of control. For the same compound, the T/C [3] was 102 % of control and 91 % of control, the T/C (dose: 44.0 mg/kg/injection, schedule: Q01DX009 (ip), vehicle: saline with Tween-80) was 120 % of control and the T/C [12] was 113 % of control. The T/C [4] was 102 % of control and 93 % of control, the T/C (dose: 66.0 mg/kg/injection, schedule: Q01DX009 (ip), vehicle: saline with Tween-80) was 115 % of control and the T/C (dose: 75.0 mg/kg/injection, schedule: Q04DX003 (ip), vehicle: saline with Tween-80) was 109 % of control. The T/C [9] was 115 % of control, the T/C [5] was 90 % of control and 93 % of control and the T/C (dose: 100.0 mg/kg/injection, schedule: Q04DX003 (ip), vehicle: saline with Tween-80) was 105 % of control. For the same compound, the T/C (dose: 150.0 mg/kg/injection, schedule: Q01DX009 (ip), vehicle: saline with Tween-80) was 150 % of control, the T/C (dose: 150.0 mg/kg/injection, schedule: Q04DX003 (ip), vehicle: saline with Tween-80) was 114 % of control and the T/C [14] was 92 % of control. For the same compound, the T/C [6] was 88 % of control, the T/C (dose: 225.0 mg/kg/injection, schedule: Q04DX003 (ip), vehicle: saline with Tween-80) was 121 % of control and the T/C (dose: 300.0 mg/kg/injection, schedule: Q04DX003 (ip), vehicle: saline with Tween-80) was 100 % of control. For the same compound, the T/C (dose: 400.0 mg/kg/injection, schedule: Q01DX009 (ip), vehicle: saline) was 95 % of control.
For `COc1ccc(/C=C/C(=O)c2ccccc(=O)c2O)cc1`, the T/C [22] was 106 % of control, the T/C (dose: 100.0 mg/kg/injection, schedule: Q01DX001 (ip), vehicle: Klucel (hydroxypropylcellulose) (HPC)) was 101 % of control and the T/C (dose: 200.0 mg/kg/injection, schedule: Q01DX001 (ip), vehicle: Klucel (hydroxypropylcellulose) (HPC)) was 105 % of control. For the same compound, the T/C (dose: 400.0 mg/kg/injection, schedule: Q01DX001 (ip), vehicle: Klucel (hydroxypropylcellulose) (HPC)) was 92 % of control.
For `O=c1cccc2c1c1cc[nH]c3ccc(=O)n2c31`, the T/C (dose: 1.25 mg/kg/injection, schedule: Q01DX009 (ip), vehicle: saline with Tween-80) was 98 % of control, the T/C (dose: 2.5 mg/kg/injection, schedule: Q01DX009 (ip), vehicle: saline with Tween-80) was 107 % of control and the T/C (dose: 5.0 mg/kg/injection, schedule: Q01DX009 (ip), vehicle: saline with Tween-80) was 102 % of control.
In the case of `c1ccc2c(SCCCCCSc3c4ccccc4nc4ccccc34)c3ccccc3nc2c1`, the T/C [16] is reported as 97 % of control, the T/C [17] is reported as 89 % of control and the T/C [18] is reported as 88 % of control.
For `CC(=O)NN1C(=O)Cc2ccccc2C1C(N)=O` (stereo unspecified), the T/C [12] was 103 % of control, the T/C [13] was 111 % of control and the T/C [14] was 103 % of control.
For `O=c1oc2nc3ccc(Cl)cc3c(=O)n2c2ccc(Cl)cc12`, the T/C [12] was 108 % of control, the T/C [13] was 118 % of control and the T/C [14] was 104 % of control.
In the case of `Nc1ncnc2c1c(-c1ccc(Cl)cc1)cn2-c1ccccc1`, the T/C [19] is reported as 100 % of control, the T/C [20] is reported as 96 % of control and the T/C [21] is reported as 90 % of control.
In the case of `CC(C)(O)C1CCC2(C)CC(=O)NCCN12` (stereo unspecified), the T/C (dose: 25.0 mg/kg/injection, schedule: Q01DX001 (ip), vehicle: Klucel (hydroxypropylcellulose) (HPC)) is reported as 112 % of control and the T/C [22] is reported as 106 % of control.
For `COC1=CC(=O)C(CC=C(C)C)=CC1=O`, the T/C (dose: 50.0 mg/kg/injection, schedule: Q01DX005 (ip), vehicle: Klucel (hydroxypropylcellulose) (HPC)) was 100 % of control, the T/C (dose: 100.0 mg/kg/injection, schedule: Q01DX005 (ip), vehicle: Klucel (hydroxypropylcellulose) (HPC)) was 102 % of control and the T/C (dose: 200.0 mg/kg/injection, schedule: Q01DX005 (ip), vehicle: Klucel (hydroxypropylcellulose) (HPC)) was 105 % of control.
In the case of `CC(C)(C)C(=O)CC(Cc1nccc2ccccc12)c1ccco1` (stereo unspecified), the T/C [8] is reported as 113 % of control, the T/C [9] is reported as 106 % of control and the T/C [10] is reported as 97 % of control.
